Values after ≈ are worked out from the molar mass of the structure shown.

This is an account of results in PubChem BioAssay AID1996.

The conditions of the data set: buffer; pH 7.4; 200.0 µM.
For orientation: solubility (kinetic) means the concentration staying in solution when a stock, usually in DMSO, is diluted into the medium. In the case of `CCOC(=O)NC(C(Cl)(Cl)Cl)S(=O)(=O)c1ccccc1` (stereo unspecified), the solubility (kinetic) is above 54.1 µg/mL.
As for `N#CC(C#N)=Cc1cnc(N2CCN(c3ccccc3)CC2)s1`, the figure is below 0.1 µg/mL.
On to `Cc1cccnc1NC(=O)Nc1cccc(Cl)c1`, for which the solubility (kinetic) worked out at 0.5 µg/mL (≈ 1.91 µM).
The compound `O=c1[nH]c(SCc2cccc(F)c2)nc2ccccc12` showed a solubility (kinetic) below 0.3 µg/mL.
The compound `O=C(CN1CCCCC1)Nc1nc(-c2ccc(F)c(F)c2)cs1` returned a solubility (kinetic) of 2 µg/mL (≈ 5.93 µM).
Compound `COc1cc([N+](=O)[O-])ccc1NC(=O)CN1CCCC1` displayed a kinetic solubility of 37.2 µg/mL (≈ 133 µM).
The same measure for `O=C(CCCOc1ccccc1)Nc1ccc(Cl)c(S(=O)(=O)N2CCOCC2)c1`: 25.7 µg/mL (≈ 58.6 µM); for `CCOC(=O)CNC(=O)c1ccc(SCC)cc1`: above 40.1 µg/mL; for `O=C(/C=C/c1ccco1)NCc1ccco1`: above 32.6 µg/mL.
With `Cc1ccc(C(=O)N2CCC(C(=O)NC3CCCCCC3)CC2)cc1`, the solubility (kinetic) amounted to 48.1 µg/mL (≈ 140 µM).
The same measure for `S=C(NCCc1ccccc1)NCCc1cnc[nH]1`: above 41.2 µg/mL.
Consider `Nc1cccc(-c2cnc3ccccc3n2)c1`, for which the solubility (kinetic) is above 33.2 µg/mL.
Take `Cc1ccccc1OCC(=O)OCC(=O)NCc1ccco1`: the kinetic solubility was above 45.5 µg/mL.
In turn, `CCCCn1c(O)c(C(CC)=NCCCn2ccnc2)c(=O)[nH]c1=O` gave a solubility (kinetic) of 48.2 µg/mL (≈ 139 µM).
Turning to `CC(=O)N1CCN(C(=S)Nc2ccc(SC(F)F)cc2)CC1`, the kinetic solubility is above 51.8 µg/mL.
For `CSc1ccc(C2NC(=O)CCC2[N+](=O)[O-])cc1` (stereo unspecified), the solubility (kinetic) was above 39.9 µg/mL.
The compound `CCC(C)(NC=O)C(=O)Nc1c(C)cccc1C` (stereo unspecified) had a solubility (kinetic) above 37.2 µg/mL.
The compound `COc1ccc(NC2CC(=O)N(c3cccc([N+](=O)[O-])c3)C2=O)cc1` (stereo unspecified) returned a solubility (kinetic) above 51.2 µg/mL.
As for `O=c1[nH]c(=O)n(-c2ccc(Br)cc2)c(O)c1C=NCCN1CCCCC1`, the kinetic solubility was 60.5 µg/mL (≈ 144 µM).
`C=CCOC(=O)c1ccc(N2CCN(c3ccccc3)CC2)nc1` yielded a kinetic solubility of 0.9 µg/mL (≈ 2.78 µM).
In turn, `O=C(c1cc2cc(F)ccc2[nH]1)N1CCc2ccccc2C1` gave a kinetic solubility of 0.9 µg/mL (≈ 3.06 µM).
Take `Cc1cc2cccc(C)c2nc1SCC(=O)NC1CCCCC1`: the kinetic solubility is below 0.4 µg/mL.
On to `CCc1cccc(C)c1NC(=O)CSc1nc(C)c(C)o1`, for which the solubility (kinetic) is above 45.7 µg/mL.
For `O=C(Nc1nccs1)c1ccc(-c2ccc(Cl)cc2)o1`, the solubility (kinetic) came to 1.9 µg/mL (≈ 6.23 µM).
The compound `COc1cc(C(=O)NCCNC(=O)C2CCCNC2=O)cc(OC)c1OC` (stereo unspecified) displayed a solubility (kinetic) above 56.9 µg/mL.
`CC1Cc2ccccc2N1Cc1ccc([N+](=O)[O-])cc1` (stereo unspecified) came in with a solubility (kinetic) below 0.3 µg/mL.
In turn, `COc1cn(-c2ccccc2)nc1C(=O)NCc1ccccc1` registered a solubility (kinetic) above 46.1 µg/mL.
`COC(=O)C(Cc1ccc(O)cc1)N1Cc2ccccc2C1=O` (stereo unspecified) gave a kinetic solubility above 46.7 µg/mL.
With `CC1CCC(NC(=O)C(C)N2C(=O)C3CCCCC3C2=O)CC1` (stereo unspecified), the solubility (kinetic) was above 48.1 µg/mL.
As for `Cc1ccsc1C(=O)Nc1ccccc1N1CCCC1`, the figure is 27.6 µg/mL (≈ 96.4 µM); as for `O=C(O)c1cccc(Nc2nc3ccccc3nc2NS(=O)(=O)c2ccc(F)cc2)c1`, above 65.8 µg/mL.
In turn, `CN(C)c1ccc(SC#N)cc1` gave a solubility (kinetic) of 4.2 µg/mL (≈ 23.6 µM).
`Nc1nnc(SCC(=O)NC2CCCCCCC2)s1` gave a solubility (kinetic) above 45.1 µg/mL.
The same measure for `O=CN1CCN(C(=O)c2ccc3c(c2)OCO3)CC1`: above 39.3 µg/mL; for `CCCC(C(=O)OCCN(CC)CC)(c1ccccc1)c1ccccc1.Cl`: 47.4 µg/mL.
Take `Nc1nc(Nc2ccccc2)nc(NCCO)c1[N+](=O)[O-]`: the kinetic solubility came out at 38 µg/mL (≈ 131 µM).
As for `Cc1cc(C(=O)CSc2nc(N)cc(N)n2)c(C)n1CC1CCCO1` (stereo unspecified), the kinetic solubility is above 54.2 µg/mL.
The compound `COC(=O)C(Cc1ccccc1)NC(=O)CC(C)CC(=O)Nc1ccc(C)cc1` (stereo unspecified) had a solubility (kinetic) of 14.3 µg/mL (≈ 36.1 µM).
The same measure for `Cc1ccc(OCC(O)Cn2nc(C)cc2C)cc1` (stereo unspecified): above 39.1 µg/mL; for `O=C(CN1C(=O)C(=O)c2ccccc21)c1ccc(Cl)cc1`: 1.9 µg/mL (≈ 6.34 µM).
As for `COc1cccc(NC(=O)C(C)N2C(=O)c3ccccc3C2=O)c1` (stereo unspecified), the figure is 27.3 µg/mL (≈ 84.2 µM); as for `O=C1/C(=C/c2cccnc2)SC(=S)N1c1ccc(O)cc1`, 0.9 µg/mL (≈ 2.86 µM); as for `Cc1ccc(CN2CCN(C3CCOCC3)CC2CCO)cc1` (stereo unspecified), above 47.8 µg/mL.
The same measure for `Cc1ccc(S(=O)(=O)Nc2cccc(Cl)c2)cc1NC(=O)C1CC1`: above 54.7 µg/mL.
Compound `NC1C2CN3CCN(C2)CC1(c1ccccc1)C3` (stereo unspecified) displayed a kinetic solubility above 36.5 µg/mL.
With `COc1ccc(-n2c(C)nc3sc4c(c3c2=O)CCCC4)cc1`, the kinetic solubility is 6.4 µg/mL (≈ 19.6 µM).
`N#C/C(=C\c1ccc(O)cc1)C(=O)NCc1ccccc1` gave a kinetic solubility of 2.4 µg/mL (≈ 8.62 µM).
`N#Cc1ccccc1Oc1ccccc1C=O`: the solubility (kinetic) came out at 31.6 µg/mL (≈ 142 µM).
In turn, `Cc1ccc(S(C)(=O)=NS(=O)(=O)c2cccc3nsnc23)cc1` (stereo unspecified) came in with a solubility (kinetic) above 55.1 µg/mL.
`Cc1ccc(N2C(=O)CC3(CCCC3)CC2=O)cc1`: the solubility (kinetic) worked out at 34.3 µg/mL (≈ 133 µM).
The same measure for `COc1ccc(NC(=O)Cc2cccs2)cc1S(=O)(=O)N1CCCCC1`: 44.4 µg/mL (≈ 113 µM).
